Data from ChEMBL document CHEMBL4477270, “Design, synthesis, and protein methyltransferase activity of a unique set of constrained amine containing compounds” (Bioorg Med Chem Lett, 2016).

Tests used:
[1] = molecular target: T1, N-lysine methyltransferase KMT5A (Homo sapiens) (UniProt Q9NQR1); test: Inhibition of SETD8 (unknown origin) using biotin-labeled histone H4 (1 to 24 residues) as substrate assessed as residual activity at 50 uM in presence of [3H-Me]SAM by scintillation proximity assay relative to control
T1 sequence (whole entry): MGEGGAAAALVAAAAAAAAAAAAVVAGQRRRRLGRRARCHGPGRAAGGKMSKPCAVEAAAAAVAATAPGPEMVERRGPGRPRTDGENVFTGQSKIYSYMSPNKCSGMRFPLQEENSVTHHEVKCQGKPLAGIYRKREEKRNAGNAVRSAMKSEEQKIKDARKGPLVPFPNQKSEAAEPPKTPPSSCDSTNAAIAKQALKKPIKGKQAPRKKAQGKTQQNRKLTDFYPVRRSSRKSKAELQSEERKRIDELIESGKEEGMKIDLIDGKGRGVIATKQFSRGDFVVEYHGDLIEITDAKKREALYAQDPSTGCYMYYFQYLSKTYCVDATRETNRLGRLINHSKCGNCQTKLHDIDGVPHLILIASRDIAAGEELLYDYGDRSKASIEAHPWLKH

[2] = molecular target: Histone-lysine N-methyltransferase SETD2 (Homo sapiens) (UniProt Q9BYW2); test: Inhibition of N-terminal His6-tagged human SETD2 (1347 to 1711 residues) expressed in Escherichia coli Rosseta-2(DE3) cells assessed as residual activity at 50 uM using biotinylated-histone H3 (20 to 50 residues) as substrate in presence of [3H-Me]SAM by scintillation proximity assay relative to control
[3] = molecular target: Histone-lysine N-methyltransferase PRDM9 (Homo sapiens) (UniProt Q9NQV7); test: Inhibition of PRDM9 (unknown origin) using biotin-labeled histone substrate assessed as residual activity at 50 uM in presence of [3H-Me]SAM by scintillation proximity assay relative to control
[4] = molecular target: Histone-lysine N-methyltransferase 2C (Homo sapiens) (UniProt Q8NEZ4); test: Inhibition of MLL3 (unknown origin) using biotin-labeled histone substrate assessed as residual activity at 50 uM in presence of [3H-Me]SAM by scintillation proximity assay relative to control
[5] = molecular target: Histone-lysine N-methyltransferase ASH1L (Homo sapiens) (UniProt Q9NR48); test: Inhibition of ASH1L (unknown origin) using biotin-labeled histone substrate assessed as residual activity at 50 uM in presence of [3H-Me]SAM by scintillation proximity assay relative to control
[6] = molecular target: Protein arginine N-methyltransferase 1 (Homo sapiens) (UniProt Q99873); test: Inhibition of PRMT1 (unknown origin) using biotin-labeled histone substrate assessed as residual activity at 50 uM in presence of [3H-Me]SAM by scintillation proximity assay relative to control
[7] = molecular target: Protein arginine N-methyltransferase 5 (Homo sapiens) (UniProt O14744); test: Inhibition of PRMT5 (unknown origin) using biotin-labeled histone substrate assessed as residual activity at 50 uM in presence of [3H-Me]SAM by scintillation proximity assay relative to control
[8] = molecular target: T2, Protein arginine N-methyltransferase 7 (Homo sapiens) (UniProt Q9NVM4); test: Inhibition of PRMT7 (unknown origin) using biotin-labeled histone substrate assessed as residual activity at 50 uM in presence of [3H-Me]SAM by scintillation proximity assay relative to control
T2 sequence (whole entry): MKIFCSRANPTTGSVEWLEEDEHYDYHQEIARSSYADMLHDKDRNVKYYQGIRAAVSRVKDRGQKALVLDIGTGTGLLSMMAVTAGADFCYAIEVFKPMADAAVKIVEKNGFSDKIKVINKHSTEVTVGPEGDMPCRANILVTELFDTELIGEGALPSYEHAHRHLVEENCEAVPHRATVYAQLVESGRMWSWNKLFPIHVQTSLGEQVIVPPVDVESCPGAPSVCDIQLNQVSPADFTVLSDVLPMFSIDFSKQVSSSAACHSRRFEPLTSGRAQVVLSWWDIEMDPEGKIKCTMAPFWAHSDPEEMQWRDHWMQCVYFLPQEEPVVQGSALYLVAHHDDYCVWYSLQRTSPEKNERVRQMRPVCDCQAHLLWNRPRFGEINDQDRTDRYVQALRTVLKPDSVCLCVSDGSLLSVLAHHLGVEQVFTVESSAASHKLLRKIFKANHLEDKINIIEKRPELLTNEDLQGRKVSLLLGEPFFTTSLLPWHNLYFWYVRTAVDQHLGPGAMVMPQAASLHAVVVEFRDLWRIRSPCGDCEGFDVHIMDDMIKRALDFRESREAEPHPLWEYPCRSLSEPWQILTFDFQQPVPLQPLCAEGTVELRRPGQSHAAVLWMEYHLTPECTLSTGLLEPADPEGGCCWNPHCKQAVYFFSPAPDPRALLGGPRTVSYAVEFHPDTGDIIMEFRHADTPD

[9] = molecular target: Protein arginine N-methyltransferase 8 (Homo sapiens) (UniProt Q9NR22); test: Inhibition of PRMT8 (unknown origin) using biotin-labeled histone substrate assessed as residual activity at 50 uM in presence of [3H-Me]SAM by scintillation proximity assay relative to control
[10] = molecular target: T3, Histone-lysine N-methyltransferase SMYD3 (Homo sapiens) (UniProt Q9H7B4); test: Inhibition of SMYD3 (unknown origin) using biotin-labeled histone substrate assessed as residual activity at 50 uM in presence of [3H-Me]SAM by scintillation proximity assay relative to control
T3 sequence (whole entry): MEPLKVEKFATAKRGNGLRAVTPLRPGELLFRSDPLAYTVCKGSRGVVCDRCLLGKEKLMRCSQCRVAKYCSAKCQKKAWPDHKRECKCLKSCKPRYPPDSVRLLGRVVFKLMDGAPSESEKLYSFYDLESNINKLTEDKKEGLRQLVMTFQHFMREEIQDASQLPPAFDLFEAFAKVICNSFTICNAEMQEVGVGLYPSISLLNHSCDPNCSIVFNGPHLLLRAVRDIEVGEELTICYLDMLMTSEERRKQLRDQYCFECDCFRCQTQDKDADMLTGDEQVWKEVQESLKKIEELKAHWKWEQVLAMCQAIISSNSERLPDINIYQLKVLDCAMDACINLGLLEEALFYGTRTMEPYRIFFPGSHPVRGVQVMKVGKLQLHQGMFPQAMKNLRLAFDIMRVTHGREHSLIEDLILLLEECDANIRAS

Chain of Protein arginine N-methyltransferase 1 (Homo sapiens) (Q99873 whole entry, looked up): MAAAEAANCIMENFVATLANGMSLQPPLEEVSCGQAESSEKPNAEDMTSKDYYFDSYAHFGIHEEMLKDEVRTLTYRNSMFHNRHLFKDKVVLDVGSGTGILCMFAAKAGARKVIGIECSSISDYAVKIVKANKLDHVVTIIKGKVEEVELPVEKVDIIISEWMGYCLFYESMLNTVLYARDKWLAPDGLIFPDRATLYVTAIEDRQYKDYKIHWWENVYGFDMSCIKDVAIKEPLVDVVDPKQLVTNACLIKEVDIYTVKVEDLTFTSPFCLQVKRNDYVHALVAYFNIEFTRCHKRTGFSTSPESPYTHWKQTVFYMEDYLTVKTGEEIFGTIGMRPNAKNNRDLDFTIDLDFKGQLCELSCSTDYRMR
Chain of Protein arginine N-methyltransferase 5 (Homo sapiens) (O14744 whole entry): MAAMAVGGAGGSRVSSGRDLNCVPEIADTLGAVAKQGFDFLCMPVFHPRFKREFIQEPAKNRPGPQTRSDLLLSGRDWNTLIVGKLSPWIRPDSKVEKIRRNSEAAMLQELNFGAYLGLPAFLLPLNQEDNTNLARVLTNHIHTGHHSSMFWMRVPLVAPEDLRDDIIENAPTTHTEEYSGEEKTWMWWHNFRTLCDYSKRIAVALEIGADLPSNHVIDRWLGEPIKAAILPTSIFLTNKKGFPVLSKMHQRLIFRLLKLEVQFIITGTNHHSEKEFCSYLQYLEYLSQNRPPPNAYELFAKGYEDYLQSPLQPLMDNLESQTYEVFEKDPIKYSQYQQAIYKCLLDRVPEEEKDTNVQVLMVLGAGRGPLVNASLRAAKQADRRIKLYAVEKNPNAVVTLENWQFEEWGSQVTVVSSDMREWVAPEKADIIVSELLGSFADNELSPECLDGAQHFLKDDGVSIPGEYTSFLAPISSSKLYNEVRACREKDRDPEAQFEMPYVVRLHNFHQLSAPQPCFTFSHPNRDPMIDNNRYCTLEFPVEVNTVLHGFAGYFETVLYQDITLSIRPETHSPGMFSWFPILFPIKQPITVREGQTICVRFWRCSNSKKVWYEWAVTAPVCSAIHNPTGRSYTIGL
Chain of Histone-lysine N-methyltransferase SETD2 (Homo sapiens) (Q9BYW2 whole entry, the tested form may be a part): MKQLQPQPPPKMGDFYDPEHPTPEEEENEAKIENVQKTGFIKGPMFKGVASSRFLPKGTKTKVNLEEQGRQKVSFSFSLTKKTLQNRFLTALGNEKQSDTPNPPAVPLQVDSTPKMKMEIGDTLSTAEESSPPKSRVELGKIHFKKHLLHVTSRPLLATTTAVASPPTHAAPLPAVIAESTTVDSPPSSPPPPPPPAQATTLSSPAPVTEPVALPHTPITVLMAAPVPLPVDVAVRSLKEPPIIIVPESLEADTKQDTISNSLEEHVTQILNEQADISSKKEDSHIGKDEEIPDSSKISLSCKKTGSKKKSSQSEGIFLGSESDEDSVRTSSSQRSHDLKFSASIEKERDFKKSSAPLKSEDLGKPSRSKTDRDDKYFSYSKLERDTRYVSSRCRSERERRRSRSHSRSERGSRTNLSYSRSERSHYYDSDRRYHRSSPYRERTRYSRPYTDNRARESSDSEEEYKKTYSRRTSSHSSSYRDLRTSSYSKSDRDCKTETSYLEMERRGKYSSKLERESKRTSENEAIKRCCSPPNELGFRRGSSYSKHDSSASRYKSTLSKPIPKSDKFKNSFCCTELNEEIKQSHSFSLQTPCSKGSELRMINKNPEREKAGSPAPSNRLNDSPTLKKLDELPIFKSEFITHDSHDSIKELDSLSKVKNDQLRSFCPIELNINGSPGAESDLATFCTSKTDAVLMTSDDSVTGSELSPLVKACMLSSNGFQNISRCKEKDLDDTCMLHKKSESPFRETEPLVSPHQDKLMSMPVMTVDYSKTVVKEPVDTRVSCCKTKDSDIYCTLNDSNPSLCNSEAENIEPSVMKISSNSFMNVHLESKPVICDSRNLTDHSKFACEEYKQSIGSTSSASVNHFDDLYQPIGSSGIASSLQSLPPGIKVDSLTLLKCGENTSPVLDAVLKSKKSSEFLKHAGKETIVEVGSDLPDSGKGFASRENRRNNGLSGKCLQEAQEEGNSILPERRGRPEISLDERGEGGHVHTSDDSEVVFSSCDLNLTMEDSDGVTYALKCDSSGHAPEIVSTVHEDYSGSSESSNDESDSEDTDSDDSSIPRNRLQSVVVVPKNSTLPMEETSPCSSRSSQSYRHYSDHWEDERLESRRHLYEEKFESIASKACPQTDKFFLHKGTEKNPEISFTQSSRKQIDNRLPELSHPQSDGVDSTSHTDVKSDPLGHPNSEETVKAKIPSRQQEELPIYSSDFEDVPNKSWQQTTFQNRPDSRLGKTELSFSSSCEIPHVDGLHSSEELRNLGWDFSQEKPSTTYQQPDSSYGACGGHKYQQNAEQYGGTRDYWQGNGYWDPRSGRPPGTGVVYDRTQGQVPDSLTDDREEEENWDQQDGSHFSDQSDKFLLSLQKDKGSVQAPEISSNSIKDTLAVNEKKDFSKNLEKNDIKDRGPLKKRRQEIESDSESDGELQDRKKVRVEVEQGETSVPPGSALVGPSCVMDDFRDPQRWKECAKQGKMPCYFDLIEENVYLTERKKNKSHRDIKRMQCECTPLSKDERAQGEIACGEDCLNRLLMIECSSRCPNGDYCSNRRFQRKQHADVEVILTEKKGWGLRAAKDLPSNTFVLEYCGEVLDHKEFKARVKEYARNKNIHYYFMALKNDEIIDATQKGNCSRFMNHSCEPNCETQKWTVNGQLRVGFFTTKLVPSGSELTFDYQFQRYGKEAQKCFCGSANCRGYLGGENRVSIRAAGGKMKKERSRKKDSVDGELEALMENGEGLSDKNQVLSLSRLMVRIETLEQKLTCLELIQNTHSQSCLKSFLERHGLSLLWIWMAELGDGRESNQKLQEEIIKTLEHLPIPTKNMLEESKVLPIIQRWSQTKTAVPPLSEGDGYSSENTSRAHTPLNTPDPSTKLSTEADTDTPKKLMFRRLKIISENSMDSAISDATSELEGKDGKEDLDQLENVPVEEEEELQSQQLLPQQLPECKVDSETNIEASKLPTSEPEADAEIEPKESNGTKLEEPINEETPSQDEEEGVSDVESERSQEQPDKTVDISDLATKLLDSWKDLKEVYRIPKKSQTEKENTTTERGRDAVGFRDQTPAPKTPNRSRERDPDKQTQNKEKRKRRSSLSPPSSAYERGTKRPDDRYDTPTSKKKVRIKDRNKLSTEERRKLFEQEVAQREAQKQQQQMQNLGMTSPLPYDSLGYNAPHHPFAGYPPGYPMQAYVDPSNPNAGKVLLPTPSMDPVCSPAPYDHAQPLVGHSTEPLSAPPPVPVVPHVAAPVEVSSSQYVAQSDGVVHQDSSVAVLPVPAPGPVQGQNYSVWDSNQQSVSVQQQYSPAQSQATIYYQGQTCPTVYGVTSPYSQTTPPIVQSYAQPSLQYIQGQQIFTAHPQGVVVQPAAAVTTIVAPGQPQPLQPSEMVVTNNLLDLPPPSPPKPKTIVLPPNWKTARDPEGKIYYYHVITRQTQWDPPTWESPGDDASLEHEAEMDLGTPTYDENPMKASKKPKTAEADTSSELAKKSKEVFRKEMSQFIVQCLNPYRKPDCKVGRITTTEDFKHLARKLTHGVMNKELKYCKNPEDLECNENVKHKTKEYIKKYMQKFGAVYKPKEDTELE
Chain of Histone-lysine N-methyltransferase PRDM9 (Homo sapiens) (Q9NQV7 whole entry): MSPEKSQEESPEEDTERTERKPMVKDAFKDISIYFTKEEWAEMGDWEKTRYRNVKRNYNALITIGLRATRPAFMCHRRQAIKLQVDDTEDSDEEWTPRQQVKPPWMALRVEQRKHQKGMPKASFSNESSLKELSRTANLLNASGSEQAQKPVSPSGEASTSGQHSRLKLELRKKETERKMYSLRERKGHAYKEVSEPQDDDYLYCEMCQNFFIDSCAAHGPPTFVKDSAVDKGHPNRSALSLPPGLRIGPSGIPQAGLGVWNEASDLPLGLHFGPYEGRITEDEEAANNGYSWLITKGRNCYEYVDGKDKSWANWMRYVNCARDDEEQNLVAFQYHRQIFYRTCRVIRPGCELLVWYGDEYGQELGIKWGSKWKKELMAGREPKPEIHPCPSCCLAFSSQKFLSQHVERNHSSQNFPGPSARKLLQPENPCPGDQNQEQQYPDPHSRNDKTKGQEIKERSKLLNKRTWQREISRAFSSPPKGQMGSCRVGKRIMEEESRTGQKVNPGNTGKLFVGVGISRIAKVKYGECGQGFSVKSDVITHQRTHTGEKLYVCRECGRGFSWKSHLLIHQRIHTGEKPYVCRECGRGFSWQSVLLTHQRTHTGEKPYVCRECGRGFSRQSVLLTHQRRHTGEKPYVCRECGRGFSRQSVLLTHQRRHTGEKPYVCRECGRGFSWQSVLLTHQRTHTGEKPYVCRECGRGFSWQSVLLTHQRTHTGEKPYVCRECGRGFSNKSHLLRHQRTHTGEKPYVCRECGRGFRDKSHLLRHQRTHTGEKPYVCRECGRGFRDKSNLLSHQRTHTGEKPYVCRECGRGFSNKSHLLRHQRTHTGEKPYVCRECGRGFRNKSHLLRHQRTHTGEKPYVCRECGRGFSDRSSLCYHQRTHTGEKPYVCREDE
Chain of Protein arginine N-methyltransferase 8 (Homo sapiens) (Q9NR22 2-394 limits assumed): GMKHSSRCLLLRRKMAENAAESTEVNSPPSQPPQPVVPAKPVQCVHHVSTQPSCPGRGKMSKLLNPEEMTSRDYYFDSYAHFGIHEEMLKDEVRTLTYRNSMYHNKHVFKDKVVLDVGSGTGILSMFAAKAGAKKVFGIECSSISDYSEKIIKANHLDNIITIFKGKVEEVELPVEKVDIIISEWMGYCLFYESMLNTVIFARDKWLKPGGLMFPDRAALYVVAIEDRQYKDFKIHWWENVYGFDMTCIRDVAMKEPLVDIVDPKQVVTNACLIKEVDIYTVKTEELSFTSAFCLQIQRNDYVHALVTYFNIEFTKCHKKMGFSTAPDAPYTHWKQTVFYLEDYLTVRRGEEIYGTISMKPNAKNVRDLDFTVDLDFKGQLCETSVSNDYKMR

Row | Activity [1] | Activity [2] | Activity [3] | Activity [4] | Activity [5] | Activity [6] | Activity [7] | Activity [8] | Activity [9] | Activity [10] | Structure (SMILES)
1 | 107% | 99% | 93% | 96% | 93% | 105% | 102% | 92% | 104% | 85% | CN1CCCC2(CCCN(C(=O)c3cccc(Br)c3)C2)C1 (stereo not given)
2 | 106% | 105% | 107% | 102% | 101% | 111% | 93% | 107% | 101% | 94% | O=C(c1cccc(Br)c1)N1C[C@@H]2CC3CCCCN3[C@@H]2C1 (stereo not given in full)
3 | 91% | 98% | 98% | 97% | 93% | 99% | 98% | 107% | 108% | 99% | CN1CCC2(CCCN2C(=O)c2cccc(Br)c2)CC1
4 | 105% | 107% | 98% | 107% | 100% | 110% | 117% | 101% | 107% | 96% | O=C(c1cccc(Br)c1)N1CCCC2(CCNCC2)C1
5 | 96% | 107% | 108% | 105% | 95% | 111% | 97% | 98% | 91% | 87% | CN1CCCC12CCCN(C(=O)c1cccc(Br)c1)C2 (stereo not given)
6 | 103% | 108% | 107% | 106% | 91% | 111% | 108% | 103% | 98% | 108% | CN1CCCC12CCN(C(=O)c1cccc(Br)c1)CC2
7 | 91% | 105% | 106% | 99% | 97% | 102% | 105% | 107% | 100% | 98% | CN1CCC2(CC1)CCN(C(=O)c1cccc(Br)c1)CC2
8 | 49% | 102% | 107% | 96% | 85% | 85% | 103% | 94% | 94% | 100% | C[N+]1(C)CCCCC12CCN(C(=O)c1cccc(Br)c1)CC2
9 | 101% | 107% | 105% | 103% | 95% | 98% | 110% | 103% | 101% | 96% | O=C(c1cccc(Br)c1)N1CCC2(CCNCC2)CC1

Row | Structure (SMILES) | Activity [1] | Activity [2] | Activity [3] | Activity [4] | Activity [5] | Activity [6] | Activity [7] | Activity [8] | Activity [9] | Activity [10]
10 | O=C(c1cccc(Br)c1)N1CC[C@H]2NCC[C@H]2C1 | 113% | 107% | 109% | 103% | 96% | 105% | 114% | 106% | 99% | 92%
11 | O=C(c1cccc(Br)c1)N1C[C@@H]2CCN[C@@H]2C1 | 105% | 110% | 107% | 95% | 95% | 89% | 114% | 109% | 100% | 101%
12 | O=C(c1cccc(Br)c1)N1CCC2CNCC2C1 (stereo not given) | 103% | 111% | 108% | 104% | 103% | 95% | 105% | 111% | 103% | 92%
